Consider 9 compounds from patent US12290535B2, “Langerin+ cell targeting” (Max-Planck-Gesellschaft zur Förderung der Wissenschaften …, priority 2018, dated 2025).

The target of one series is T1, Langerin ECD (Homo sapiens, UniProt Q9UJ71, V278A).
T1 construct: residues 148 to 328; TEV site (C); StreptagII (C); made in house; host or cells: E. coli BL21* (DE3)
Nature of the series: 19F R2-filtered NMR reporter displacement assay (Ki determination). Type of series: binding. The note with it: Langerin ECD 50 μM, pH 7.8, 25° C. As to the method:
Langerin extracellular domain. Expression and purification were conducted as previously published (Wamhoff, E. C. et al. (19)F Nmr-Guided Design of Glycomimetic Langerin Ligands. ACS Chem Biol, 11, 2407-13 (2016)). Briefly, the trimeric Langerin extracellular domain (ECD) was expressed insolubly in E. coli BL21* (DE3) (Invitrogen). Following enzymatic cell lysis, inclusion bodies were harvested and subsequently solubilized. The sample was centrifuged and the Langerin ECD was refolded overnight via rapid dilution. Next, the sample was dialyzed overnight, centrifuged and purified via mannan-agarose affinity chromatography (Sigma Aldrich). For ^19F R2-filtered NMR and lipid-enzyme-linked lectin assay (Lipid-ELLA) experiments, the buffer was exchanged to 25 mM Tris with 150 mM NaCl and 5 mM CaCl2 at pH 7.8 using 7 kDa size-exclusion desalting columns (Thermo Scientific). For STD NMR experiments, Langerin ECD samples were dialyzed five times for at least 8 h against H2O. Subsequently, the H2O was removed via lyophilization and the residue was stored at −80° C. Prior to STD NMR experiments, the Langerin ECD was dissolved in 25 mM Tris-d11 (Eurisotope) with 100% D2O, 150 mM NaCl and 5 mM CaCl2 at pH 7. The concentration of Langerin ECD was determined via UV spectroscopy (A280, 0.1%=2.45). Purity and monodispersity of Langerin ECD samples were analyzed via SDS PAGE and DLS.
General remarks. ^19F R2-filtered NMR experiments were conducted on a PremiumCompact 600 MHz spectrometer (Agilent). Spectra were processed in MestReNova and data analysis was performed with OriginPro (Mestrelab Research. Mestrenova. 11.0.2. (2016); OriginLab. Originpro. 9.1. (2015)). Experiments with the Langerin ECD were performed at a receptor concentration of 50 μM in 25 mM Tris with 10% D2O, 150 mM NaCl and 5 mM CaCl2 at pH 7.8 and 25° C. Experiments with the DC-SIGN CRD were performed at a receptor concentration of 50 μM in 25 mM HEPES with 10% D2O, 150 mM NaCl and 5 mM CaCl2 at pH 7.0 and 25° C. TFA served as an internal reference at a concentration of 50 μM. Apparent relaxation rates R2,obs for the reporter ligand were determined using the CPMG pulse sequence as previously published (Wamhoff, E. C. et al. (19)F Nmr-Guided Design of Glycomimetic Langerin Ligands. ACS Chem Biol, 11, 2407-13 (2016): Carr, H. Y. & Purcell, E. M. Effects of Diffusion on Free Precession in Nuclear Magnetic Resonance Experiments. Phys Rev, 94, 630-638 (1954); Meiboom, S. & Gill, D. Modified Spin-Echo Method for Measuring Nuclear Relaxation Times. Rev Sci Instrum 29, 688-691 (1958)).
Ki determination. Ki values were determined as previously published for Langerin (Wamhoff, E. C. et al. (19)F NMR-Guided Design of Glycomimetic Langerin Ligands. ACS Chem Biol 11, 2407-13 (2016)). Briefly, titration experiments were conducted at a concentration of 0.1 mM of reporter ligand 24 at five competitor concentrations [I]T. Samples were prepared via serial dilution. For the acids GlcNS, GlcNAc-6-OS and GlcNS-6-OS the pH values were monitored and adjusted to 7.8 if necessary.

The test system of another series is hLangerin+ Raji cells. Nature of the series: cell-based binding and internalization assay of functionalized GFP. Also on record: species or system human. Conditions: 4° C., in words. As to the method: In FIG. 21 (A) the binding and uptake of functionalized GFP at 4° C. and 37° C. was dose-dependently measured by flow cytometry with Raji and Langerin^+ Raji cells. In FIG. 21 (B) GFP and liposomes were incubated for various time points with Langerin^+ Raji cells. Here, FITC-BSA encapsulated liposomes were utilized to compare the FITC fluorescence with the GFP fluorescence.
Functionalized GFP was then tested in a cell-based binding and internalization assay. Both GlcNTosyl functionalized GFP and unconjugated GFP were incubated with WT or hLangerin^+ Raji cells at 4° C. and at 37° C. for 1 h or 2 h, respectively (see FIG. 21). Targeted GFP specifically bound to Langerin expressing cells and saturated at concentrations above 1 μg/ml (see FIG. 21 (A)). […] GFP fluorescence was slightly elevated compared to the binding assay and also saturated above 1 μg/ml.

Another series addresses T2, DC-SIGN CRD (Homo sapiens, UniProt Q9NNX6).
T2 construct: residues 205 to 404; TEV site (C); StreptagII (C); made in house; host or cells: E. coli BL21* (DE3)
T2 sequence (Q9NNX6 250-404): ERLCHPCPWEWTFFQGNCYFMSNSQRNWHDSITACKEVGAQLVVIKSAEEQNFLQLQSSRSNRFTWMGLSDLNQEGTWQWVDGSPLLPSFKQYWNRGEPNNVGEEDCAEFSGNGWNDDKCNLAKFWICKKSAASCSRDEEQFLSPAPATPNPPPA
Nature of the series: 19F R2-filtered NMR reporter displacement assay transferred to DC-SIGN. The class given is binding. Conditions: 19F R2-filtered NMR, DC-SIGN CRD 50 μM, pH 7.0, 25° C. The procedure: Langerin and DC-SIGN carbohydrate recognition domain. Expression and purification were conducted as previously published. Briefly, the monomeric ^15N-labeled Langerin and DC-SIGN carbohydrate recognition domains (CRDs) were expressed insolubly in E. coli BL21* (DE3) (Invitrogen). Following enzymatic cell lysis, inclusion bodies were harvested and subsequently solubilized. The sample was centrifuged and the Langerin and DC-SIGN CRDs were refolded overnight via rapid dilution. Next, the sample was dialyzed overnight, centrifuged and purified via StrepTactin affinity chromatography (Iba). After an additional dialysis step overnight, the sample was centrifuged and the buffer was exchanged to 25 mM HEPES with 150 mM NaCl at pH 7.0 using 7 kDa size-exclusion desalting columns (Thermo Scientific) for ^19F R2-filtered and ^15N HSQC NMR experiments. The concentration of Langerin and DC-SIGN CRDs was determined via UV spectroscopy (A280, 0.1%=3.19 and A280, 0.1%=2.98). Purity and monodispersity of Langerin and DC-SIGN CRD samples were analyzed via SDS PAGE and DLS.
General remarks. ^19F R2-filtered NMR experiments were conducted on a PremiumCompact 600 MHz spectrometer (Agilent). […] Apparent relaxation rates R2,obs for the reporter ligand were determined using the CPMG pulse sequence as previously published (Wamhoff, E. C. et al. (19)F Nmr-Guided Design of Glycomimetic Langerin Ligands. ACS Chem Biol, 11, 2407-13 (2016): Carr, H. Y. & Purcell, E. M. Effects of Diffusion on Free Precession in Nuclear Magnetic Resonance Experiments. Phys Rev, 94, 630-638 (1954); Meiboom, S. & Gill, D. Modified Spin-Echo Method for Measuring Nuclear Relaxation Times. Rev Sci Instrum 29, 688-691 (1958)).
Assay development for DC-SIGN. […] Briefly, the KD value and the relaxation rate in bound state R2,b were determined at five concentrations [L]T of reporter ligand 24 in three independent titration experiments. […]
Ki determination. Ki values were determined as previously published for Langerin (Wamhoff, E. C. et al. (19)F NMR-Guided Design of Glycomimetic Langerin Ligands. ACS Chem Biol 11, 2407-13 (2016)). […]

In a further series the test system is Langerin+ cells. Kind of series: in vitro cytotoxicity, Annexin-V / 7-AAD staining. Type of series: cell-based. The note with it: 50% DMSO for 3 min, positive control. The procedure: Liposomes consist mainly of phospholipids and cholesterol. […] As a positive control, cells were treated for 3 min with 50% DMSO. Untreated cells were applied as negative controls. Cells were washed and resuspended in 25 μl buffer (10 mM HEPES, 140 mM NaCl and 2.5 mM CaCl2), pH7.4) containing 1:100 diluted Annexin-V-FITC (Adipogen). Cells were incubated for 10 min in the dark at room temperature. After washing, cells were resuspended in 100 μl buffer containing 1 μl 7-AAD solution (Biolegend) and incubated for 5-10 min in the dark at room temperature. Cells were directly measured without any further washing steps by flow cytometry. […] Annexin-V was detected with a 530/30 filter, 7-AAD with a 695/40 filter and Alexa647 with a 670/14 filter (Attune Nxt, life technologies). […] Langerin targeted liposomes were incubated with cells for extended time periods up to 72 h, and cell toxicity was subsequently analyzed (see FIG. 17).
Early apoptotic effects were detected with Annexin-V staining that binds translocated phosphatidylserine, whereas late apoptotic cells were stained with 7-AAD a cell impermeable fluorescent intercalator that associates to DNA and undergoes a spectral shift. […] After doublet discrimination, single cells were analyzed for Annexin-V-FITC and 7-AAD staining in a bivariate histogram by dividing the plot in four quadrants. […]

The target of a further series is T3, DC-SIGN (Homo sapiens, UniProt Q9NNX6).
T3 sequence (Q9NNX6 1-404): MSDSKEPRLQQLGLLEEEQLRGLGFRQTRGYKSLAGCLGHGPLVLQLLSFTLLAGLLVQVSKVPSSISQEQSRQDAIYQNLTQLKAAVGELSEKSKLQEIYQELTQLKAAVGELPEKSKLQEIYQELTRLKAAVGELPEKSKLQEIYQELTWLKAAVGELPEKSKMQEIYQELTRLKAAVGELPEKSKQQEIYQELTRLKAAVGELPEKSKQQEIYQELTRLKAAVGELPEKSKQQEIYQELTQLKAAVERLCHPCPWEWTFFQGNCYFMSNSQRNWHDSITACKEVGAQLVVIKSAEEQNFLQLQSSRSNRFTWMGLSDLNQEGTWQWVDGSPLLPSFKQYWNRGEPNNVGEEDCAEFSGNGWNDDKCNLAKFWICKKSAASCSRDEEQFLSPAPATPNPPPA
Conditions: literature; cited from earlier work.

T1 sequence (Q9UJ71 148-328 V278A): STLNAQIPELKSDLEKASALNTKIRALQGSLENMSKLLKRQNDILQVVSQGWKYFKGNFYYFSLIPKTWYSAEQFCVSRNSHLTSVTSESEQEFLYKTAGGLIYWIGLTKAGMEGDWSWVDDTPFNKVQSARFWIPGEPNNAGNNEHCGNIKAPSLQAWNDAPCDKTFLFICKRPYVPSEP

The Ki is the dissociation constant of the complex between target and ligand, obtained from inhibition or displacement. A higher Ki goes with lower affinity. For `O=S(=O)(O)N[C@H]1C(O)O[C@H](CO)[C@@H](O)[C@@H]1O` (stereo partly shown) [GlcNS, glucosamine-2-sulfate], the Ki on Langerin ECD is 1400 ± 200 µM.
At Langerin ECD, `CC(=O)N[C@H]1C(O)O[C@H](COS(=O)(=O)O)[C@@H](O)[C@@H]1O` (stereo partly shown) [GlcNAc-6-OS, N-acetyl glucosamine-6-sulfate] returned a Ki of 600 ± 100 µM.
With “Unconjugated GFP: Green Fluorescence Protein without ligand, SEQ ID NO: 82”, the fluorescence signal entry in the series on hLangerin+ Raji cells is “did not show increased fluorescence signals”.
In turn, `O=S(=O)(O)N[C@H]1C(O)O[C@H](COS(=O)(=O)O)[C@@H](O)[C@@H]1O` (stereo partly shown) [GlcNS-6-OS, glucosamine-2-sulfate-6-sulfate] yielded a Ki on Langerin ECD of 280 ± 60 µM.
In turn, `OC[C@H]1OC(O)[C@H](O)[C@@H](O)[C@@H]1O` (stereo partly shown) [Glc] yielded an inhibition constant Ki on Langerin ECD of 21000 ± 4000 µM.
Take `O=C[C@@H](O)[C@@H](O)[C@H](O)[C@H](O)CO` [Man, mannose]: the Ki on DC-SIGN CRD worked out at 3000 ± 300 µM; on Langerin ECD, 4500 ± 500 µM.
In turn, `C[S+](C)[O-]` [DMSO] came in with a dead cells in the series on Langerin+ cells of 98%.
At Langerin ECD, `CC(=O)N[C@H]1C(O)O[C@H](CO)[C@@H](O)[C@@H]1O` (stereo partly shown) [GlcNAc, N-acetyl glucosamine] yielded a Ki of 4100 ± 700 µM.
As usually defined, the Kd is the concentration at which binding is half-saturated. For the compound `CC(=O)N[C@H]1C(O)O[C@H](CO)[C@@H](O[C@@H]2O[C@H](CO)[C@H](O)[C@H](O)[C@H]2O)[C@@H]1O[C@@H]1O[C@@H](C)[C@@H](O)[C@@H](O)[C@@H]1O` (stereo partly shown) [Le^X], the Kd at DC-SIGN is roughly 1000 µM.
